Values joined by “and” are separate entries in the source; they are usually repeats but may differ in a detail not shown here. Identical values can stand only once.
Key:
PD-1:PD-L1 complex = biological target: T1, PD-1:PD-L1 complex (Homo sapiens, UniProt Q9NZQ7); experiment: TR-FRET PD-1:PD-L1 complex formation assay; type: binding; settings: for Percent inhibition: duplicates
T1 construct: purchased Sino Biologicals (PD-L1); R&D system (PD-1 Fc) 10084-H08H; 1086-PD; host or cells: mammalian cells
T1 sequence (Q9NZQ7 19-239 limits assumed, one chain of several): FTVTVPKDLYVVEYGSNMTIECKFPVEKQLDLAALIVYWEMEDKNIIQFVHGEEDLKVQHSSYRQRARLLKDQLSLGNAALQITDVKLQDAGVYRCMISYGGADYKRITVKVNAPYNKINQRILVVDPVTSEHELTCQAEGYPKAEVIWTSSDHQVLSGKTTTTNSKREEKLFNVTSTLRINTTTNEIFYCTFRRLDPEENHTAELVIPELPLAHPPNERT
Experimental: The assay was performed using LANCE Ultra TR-FRET binding assay. To determine the half maximal inhibitory concentration (IC50) of tested compounds, they were solubilized in water and measurements were performed on individual dilution series. His-tagged human recombinant PD-L1 protein (Sino Biologicals, Cat#10084-H08H) at 20 nM final concentration was incubated at 25 °C temperature with indicated concentration of test compound for 15 min in a white Lumitec high-binding, 384-well plate (Grenier, Cat #781074). […] LANCE Eu-anti-human IgG from Perkin Elmer, (Cat# AD0212) at 0.5 nM final concentration and Surelight Allophycocyanin-6-His from Perkin Elmer (Cat# AD0059H) at 20 nM final concentration was added to the wells. […] Collected data was background subtracted on the negative control, normalized, and analyzed using non-linear regression analysis to determine the IC50 value by GraphPad Prism Version 8.

[1] = tested on: broad panel of receptors and enzymes; experiment: CEREP 80-panel profiling, whole panel; type: binding; settings: CEREP profiling assay
Experimental: (§1) CEREP 80 panel assay was carried out by Eurofins Cerep Panlabs facility at France. A series of binding assays was carried out to understand the off-target toxicity of CA-170. CA-170 was tested at 10 μM test concentration in duplicates. Compound binding was calculated as a % inhibition of the binding of a radioactively labeled ligand specific for each target. In each experiment the respective reference compound was tested concurrently with CA-170, and the data were compared with historical values determined at Eurofins. The experiment was accepted in accordance with Eurofins validation standard operating procedure. The results are expressed as a percent of control specific binding; (measured specific binding / control specific binding) × 100 and as a percent inhibition of control specific binding; 100−(measured specific binding / control specific binding) × 100 obtained in the presence of CA-170. The IC50 values (concentration causing a half-maximal inhibition of control specific binding) and Hill coefficients (nH) were determined by non-linear regression analysis of the competition curves generated with mean replicate values using Hill equation curve fitting.

Vasopressin V1a = biological target: T2, Vasopressin V1a (Homo sapiens, UniProt P37288); experiment: CEREP 80 panel binding: Vasopressin; settings: read-out: % Inhibition of Control Specific Binding
T2 construct: Eurofins Cerep Panlabs (contract assay)
T2 sequence (P37288 whole entry): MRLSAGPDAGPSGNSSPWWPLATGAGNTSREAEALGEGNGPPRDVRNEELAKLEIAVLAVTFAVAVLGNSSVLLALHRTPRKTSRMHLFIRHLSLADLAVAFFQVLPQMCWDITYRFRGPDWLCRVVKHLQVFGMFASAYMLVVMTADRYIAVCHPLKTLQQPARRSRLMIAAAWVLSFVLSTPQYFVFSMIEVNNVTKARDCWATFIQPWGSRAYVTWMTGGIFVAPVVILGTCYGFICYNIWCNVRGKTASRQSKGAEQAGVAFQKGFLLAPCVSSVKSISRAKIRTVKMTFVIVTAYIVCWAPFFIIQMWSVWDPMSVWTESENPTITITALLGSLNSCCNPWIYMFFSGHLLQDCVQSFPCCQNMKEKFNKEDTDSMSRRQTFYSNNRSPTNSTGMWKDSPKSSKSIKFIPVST
Experimental: as §1

[2] = tested on: BZD (peripheral), BZD (central); experiment: CEREP 80 panel binding: Benzodiazepine; settings: 10 µM
Experimental: as §1

[3] = tested on: B7.1-CD28 co-stimulatory pathway; experiment: CD28-B7.1 functional assay (IL-2, Jurkat T cells); type: cell-based, human; settings: for IL2: Jurkat + PHA 5 µg/mL + B7.1 1 µg/mL, replicates
Experimental: Impact of CA-170 on immunostimulatory interaction was examined in a Jurkat T-cell-based assay in which the ability of B7-1 to induce production of IL-2 was monitored upon stimulation with PHA. Briefly, Jurkat T cells (0.25 × 10^5 cells/well of a 96-well plate) grown and starved in serum-free RPMI1640 media for 2 h were stimulated with PHA (5 µg/mL) and B7.1 (1.0 µg/mL) and different concentrations of CA-170 and cultured for 48 h at 37 °C. After indicated time of incubation, culture supernatant was analyzed for IL-2 by ELISA. Anti-CD28 antibody and isotypes were used as controls.

Neurotensin NTS1 = biological target: T3, Neurotensin NTS1 (Homo sapiens, UniProt P30989); experiment: CEREP 80 panel binding: Neurotensin; settings: read-out: % Inhibition of Control Specific Binding
T3 construct: Eurofins Cerep Panlabs (contract assay)
T3 sequence (P30989 whole entry): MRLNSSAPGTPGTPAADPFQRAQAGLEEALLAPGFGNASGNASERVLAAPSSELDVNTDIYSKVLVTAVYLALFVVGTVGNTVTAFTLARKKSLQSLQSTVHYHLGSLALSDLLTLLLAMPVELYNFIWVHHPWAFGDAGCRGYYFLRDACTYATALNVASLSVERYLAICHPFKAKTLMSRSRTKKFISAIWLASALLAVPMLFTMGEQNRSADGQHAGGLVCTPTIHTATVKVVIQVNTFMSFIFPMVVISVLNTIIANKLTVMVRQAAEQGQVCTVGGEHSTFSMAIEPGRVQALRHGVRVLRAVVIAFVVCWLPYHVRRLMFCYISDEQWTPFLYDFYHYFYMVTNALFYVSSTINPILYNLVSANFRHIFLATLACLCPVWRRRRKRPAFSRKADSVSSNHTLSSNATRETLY
Experimental: as §1

[4] = tested on: Muscarinic M1, M2, M3, M4, M5; experiment: CEREP 80 panel binding: Muscarinic; settings: 10 µM
Experimental: as §1

[5] = tested on: advanced (stage 4) non-squamous NSCLC; parameters: method as in doi:10.1093/annonc/mdz253.035; settings: Phase 2, cited from earlier work
DOP, KOP, MOP, NOP = experiment: CEREP 80 panel binding: Opioid & Opioid like; settings: 10 µM
Experimental: as §1

Melanocortin MC4 = biological target: T4, Melanocortin MC4 (Homo sapiens, UniProt P32245); experiment: CEREP 80 panel binding: Melanocortin; settings: read-out: % Inhibition of Control Specific Binding
T4 construct: Eurofins Cerep Panlabs (contract assay)
T4 sequence (P32245 whole entry): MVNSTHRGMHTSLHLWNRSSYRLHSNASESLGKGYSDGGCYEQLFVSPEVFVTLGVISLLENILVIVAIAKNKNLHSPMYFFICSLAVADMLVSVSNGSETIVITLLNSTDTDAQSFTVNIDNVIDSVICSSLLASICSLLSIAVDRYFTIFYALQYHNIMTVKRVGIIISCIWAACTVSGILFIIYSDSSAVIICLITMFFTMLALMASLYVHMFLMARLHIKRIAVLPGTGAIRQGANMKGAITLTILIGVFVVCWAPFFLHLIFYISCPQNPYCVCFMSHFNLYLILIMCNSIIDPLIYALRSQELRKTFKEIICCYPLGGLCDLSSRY
Experimental: as §1

Cannabinoid CB1 = biological target: T5, Cannabinoid CB1 (Homo sapiens, UniProt P21554); experiment: CEREP 80 panel binding: Cannabinoid; settings: read-out: % Inhibition of Control Specific Binding
T5 construct: Eurofins Cerep Panlabs
T5 sequence (P21554 whole entry): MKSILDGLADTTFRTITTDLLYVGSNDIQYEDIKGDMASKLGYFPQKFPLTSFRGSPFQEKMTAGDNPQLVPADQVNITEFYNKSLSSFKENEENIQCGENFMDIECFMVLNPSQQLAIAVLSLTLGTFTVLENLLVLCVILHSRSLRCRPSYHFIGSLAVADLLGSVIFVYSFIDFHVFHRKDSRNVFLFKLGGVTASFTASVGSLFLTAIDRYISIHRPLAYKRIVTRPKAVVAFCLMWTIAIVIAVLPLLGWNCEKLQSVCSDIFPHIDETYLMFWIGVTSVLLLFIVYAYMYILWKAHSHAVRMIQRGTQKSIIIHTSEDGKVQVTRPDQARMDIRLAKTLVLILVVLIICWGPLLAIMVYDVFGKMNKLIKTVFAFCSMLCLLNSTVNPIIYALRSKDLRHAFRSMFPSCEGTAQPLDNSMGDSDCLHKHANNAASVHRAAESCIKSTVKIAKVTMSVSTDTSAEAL
Experimental: as §1

[6] = tested on: 5HT1A, 5HT1B, 5HT2A, 5HT2B, 5HT2C, 5HT3, 5HT5A, 5HT6, 5HT7; experiment: CEREP 80 panel binding: Serotonin; settings: 10 µM
Experimental: as §1

[7] = tested on: Adrenergic α1, α2, β1, β2; experiment: CEREP 80 panel binding: Adrenergic; settings: 10 µM
Experimental: as §1

PD-L1 = biological target: T6, PD-L1 (Mus musculus, UniProt Q9EP73); experiment: Rescue of PD-L1 mediated inhibition of proliferation, mouse splenocytes; type: cell-based; settings: splenocyte-based assay
T6 construct: purchased R&D Systems 1019-B7-100
T6 sequence (Q9EP73 with tags, fused parts or gaps limits assumed): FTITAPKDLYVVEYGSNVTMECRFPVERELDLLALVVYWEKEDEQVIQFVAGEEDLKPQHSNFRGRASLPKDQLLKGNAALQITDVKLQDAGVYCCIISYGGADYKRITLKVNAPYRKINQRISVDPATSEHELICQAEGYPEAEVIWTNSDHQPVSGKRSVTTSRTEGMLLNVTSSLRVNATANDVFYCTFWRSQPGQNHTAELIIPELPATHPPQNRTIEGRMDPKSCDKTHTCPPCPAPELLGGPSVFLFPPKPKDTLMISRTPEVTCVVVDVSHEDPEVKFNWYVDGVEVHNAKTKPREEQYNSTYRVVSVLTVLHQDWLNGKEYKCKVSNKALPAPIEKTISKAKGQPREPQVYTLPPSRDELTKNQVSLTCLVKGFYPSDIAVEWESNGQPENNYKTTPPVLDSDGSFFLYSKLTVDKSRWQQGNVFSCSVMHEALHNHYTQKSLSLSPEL
Experimental: The ability of peptides, peptidomimetics, and small molecules were analyzed for their ability to rescue T-cell proliferation or IFN-γ release from the inhibitory activity of PD-L1 or PD-L2 in a splenocyte/PBMC-based functional assay as per the protocols reported in publication. […] For all in vitro assays, test agent stock was prepared in water and diluted further in the assay media to achieve test concentrations. Each experimental condition was carried out in triplicates. Percent rescue for a given test compound concentration was calculated by normalizing individual percent test agent proliferation or IFN-γ release values to percent anti-CD3 and anti-CD28 antibodies stimulated proliferation or IFN-γ release. EC50 values were derived by plotting transformed data into non-linear fit in sigmoidal dose–response curve using GraphPad Prism software (Version 7).

TNFα = experiment: CEREP 80 panel binding: Cytokines; settings: 10 µM
Experimental: as §1

In the case of `C[C@@H](O)[C@H](NC(=O)N[C@@H](CC(N)=O)c1nc([C@@H](N)CO)no1)C(=O)O` [CA-170], the Percent inhibition (PD-1:PD-L1 complex; 1e-7 M) is reported as 6.182% and -0.9776%, the Percent inhibition (PD-1:PD-L1 complex; 1e-6 M) is reported as -12.4686% and -2.961% and the Percent inhibition (PD-1:PD-L1 complex; 1e-5 M) is reported as -7.3407% and -7.039%. The Percent inhibition (PD-1:PD-L1 complex; 0.0001 M) was -7.475% and -8.751%, the “prevention of PD-1:PD-L1 complex formation (in words)” value (PD-1:PD-L1 complex; tested up to 100 μM) was “did not lead to prevention of complex formation” and the “interaction with panel of receptors and enzymes (in words)” value [1] was “minimal or no interaction”. For the same compound, the inhibition at 10 µM (Vasopressin V1a) was 1%, the “% Inhibition of Control Specific Binding” value [2] was no more than 5% and the IL2 ([3]; 10 nM) was 70.45 pg/mL and 63.796 pg/mL and 63.436 pg/mL. For the same compound, the IL2 ([3]; 100 nM) was 83.976 pg/mL and 80.412 pg/mL and 77.892 pg/mL, the IL2 ([3]; 1000 nM) was 83.364 pg/mL and 84.022 pg/mL and 79.85 pg/mL and the “inhibition of B7-1-mediated IL-2 secretion (in words)” value ([3]; Jurkat cells stimulated with PHA + human B7-1) was “did not inhibit IL-2 secretion”. For the same compound, the inhibition at 10 µM (Neurotensin NTS1) was 7%, the “% Inhibition of Control Specific Binding” value [4] was no more than 12% and the PFS ([5]; advanced (stage 4) non-squamous NSCLC) was 19.6 weeks. For the same compound, the CBR ([5]; daily dose of 400 mg, advanced non-squamous NSCLC) was greater than 85%, the “% Inhibition of Control Specific Binding” value (DOP, KOP, MOP, NOP) was no more than 9% and the inhibition at 10 µM (Melanocortin MC4) was 0%. The inhibition at 10 µM (Cannabinoid CB1) was 12%, the “% Inhibition of Control Specific Binding” value [6] was no more than 20% and the “% Inhibition of Control Specific Binding” value [7] was no more than 6%. The EC50 (PD-L1) was 15.4 ± 1.3 nM and the “% Inhibition of Control Specific Binding” value (TNFα) was less than 0%.

Source: publication PMC8187357 (Communications Biology, 2021)
